Data taken from patent US9938322B2, “β-hairpin peptidomimetics” (priority 2013, dated 2018).
*1 amine or outer side, *2 acyl side, *3 side chain or, on linkers, in order; H or OH if unused. Where a SMILES comes first, the peptide text is derived from it. Side-chain parts run from the residue outwards. [ ]: non-standard residue; d: D form. The star is where a group is joined. X2 = O=C([C@H](CCNCc1ccccn1)N[*:1])[*:2]; Pro(3S-OH) = O=C(O)[C@H]1NCC[C@@H]1O; cisHyp = O=C(O)[C@@H]1C[C@H](O)CN1; Cha = N[C@@H](CC1CCCCC1)C(=O)O; Chg = N[C@H](C(=O)O)C1CCCCC1; Tle = CC(C)(C)[C@H](N)C(=O)O; dDab = NCC[C@@H](N)C(=O)O; Orn = NCCC[C@H](N)C(=O)O; dDap = NC[C@@H](N)C(=O)O; Dab = NCC[C@H](N)C(=O)O; Nva = CCC[C@H](N)C(=O)O; Dap = NC[C@H](N)C(=O)O; CO = O=C([*:1])[*:2]; Bn = c1ccc(C*)cc1; NHiPr = CC(C)N*

Each molecule was assayed on human red blood cells (hRBC) (assay: Hemolysis of human red blood cells). Details: red cells of human, 1 h, 100.
Type: cell-based
Method: Lyophilized peptides were weighed on a Microbalance (Mettler MT5) and dissolved in sterile water to a final concentration of 1 mg/ml. Stock solutions were kept at +4° C., light protected.
The peptides were tested for their hemolytic activity against human red blood cells (hRBC). Fresh hRBC were washed three times with phosphate buffered saline (PBS) and centrifuged for 10 min at 2000×g. Compounds (100 μg/ml) were incubated with 20% hRBC (v/v) for 1 h at 37° C. and shaking at 300 rpm. The final erythrocyte concentration was approximately 0.9×10^9 cells/ml. A value of 0% and 100% cell lyses, respectively, was determined by incubation of hRBC in the presence of PBS containing 0.001% acetic acid and 2.5% Triton X-100 in H2O, respectively. The samples were centrifuged, the supernatants were 8-fold diluted in PBS buffer and the optical densities (OD) were measured at 540 nm. The 100% lyses value (OD540H2O) gave an OD540 of approximately 0.5-1.0.
Percent hemolysis was calculated as follows: (OD540peptide/OD540H2O)×100%.

Structure (SMILES)	Hemolysis at 100 μg/ml [%]
CC[C@H](C)[C@@H]1NC(=O)[C@@H]2CCCN2C(=O)[C@H]2CCCN2C(=O)[C@H]([C@@H](C)O)NC(=O)[C@H]([C@@H](C)O)NC(=O)[C@H](C(C)(C)C)NC(=O)[C@H](CCN)NC(=O)[C@H](Cc2c[nH]c3ccccc23)NC(=O)[C@H](CCN)NC(=O)[C@@H](CCN)NC(=O)[C@H](CCN)NC(=O)[C@H](CCN)NC(=O)[C@H](Cc2ccc(O)cc2)NC(=O)[C@H](C)NC1=O [compound 133] (cyclo(IAY[Dab][Dab][dDab][Dab]W[Dab][Tle]TT[dP]P))	1
C[C@@H]1NC(=O)[C@H](C(C)(C)C)NC(=O)[C@H](CCN)NC(=O)[C@H](Cc2c[nH]c3ccccc23)NC(=O)[C@H](CCN)NC(=O)[C@@H](CCN)NC(=O)[C@H](CCCN)NC(=O)[C@H](CCNCc2ccccn2)NC(=O)[C@H](CC2CCCCC2)NC(=O)[C@H](CN)NC(=O)[C@H](Cc2c[nH]c3ccccc23)NC(=O)[C@@H]2CCCN2C(=O)[C@H]2CCCN2C(=O)[C@H](CO)NC1=O [Ex. 11] (cyclo(W[Dap][Cha][X2][Orn][dDab][Dab]W[Dab][Tle]AS[dP]P))	0
CCC[C@@H]1NC(=O)[C@@H]2CCCN2C(=O)[C@H]2CCCN2C(=O)[C@H](CO)NC(=O)[C@H](CO)NC(=O)[C@H](C(C)(C)C)NC(=O)[C@H](CCN)NC(=O)[C@H](Cc2c[nH]c3ccccc23)NC(=O)[C@H](CCN)NC(=O)[C@@H](CCN)NC(=O)[C@H](CCCN)NC(=O)[C@H](CCN)NC(=O)[C@H](CC2CCCCC2)NC(=O)[C@H](CO)NC1=O [compound 144] (cyclo([Nva]S[Cha][Dab][Orn][dDab][Dab]W[Dab][Tle]SS[dP]P))	7
C[C@@H]1NC(=O)[C@H](C(C)(C)C)NC(=O)[C@H](CCN)NC(=O)[C@H](Cc2c[nH]c3ccccc23)NC(=O)[C@H](CCN)NC(=O)[C@@H](CN)NC(=O)[C@H](CCCN)NC(=O)[C@H](CCN)NC(=O)[C@H](CC2CCCCC2)NC(=O)[C@H](CO)NC(=O)[C@H](Cc2c[nH]c3ccccc23)NC(=O)[C@@H]2CCCN2C(=O)[C@H]2CCCN2C(=O)[C@H](CO)NC1=O [compound 19] (cyclo(WS[Cha][Dab][Orn][dDap][Dab]W[Dab][Tle]AS[dP]P))	3
C[C@@H]1NC(=O)[C@H](C(C)(C)C)NC(=O)[C@H](CCN)NC(=O)[C@H](Cc2c[nH]c3ccccc23)NC(=O)[C@H](CCN)NC(=O)[C@@H](CCN)NC(=O)[C@H](CCCN)NC(=O)[C@H](CCN)NC(=O)[C@H](Cc2ccc(O)cc2)NC(=O)[C@H](CO)NC(=O)[C@H](Cc2ccc(O)cc2)NC(=O)[C@@H]2CCCN2C(=O)[C@H]2CCCN2C(=O)[C@H](Cc2ccc(O)cc2)NC1=O [compound 153] (cyclo(YSY[Dab][Orn][dDab][Dab]W[Dab][Tle]AY[dP]P))	2
COc1ccc(C[C@@H]2NC(=O)[C@H](CO)NC(=O)[C@H](CC(C)C)NC(=O)[C@@H]3CCCN3C(=O)[C@H]3CCCN3C(=O)[C@H](CO)NC(=O)[C@H](C)NC(=O)[C@H](C(C)(C)C)NC(=O)[C@H](CCN)NC(=O)[C@H](Cc3c[nH]c4ccccc34)NC(=O)[C@H](CCN)NC(=O)[C@@H](CCN)NC(=O)[C@H](CCCN)NC(=O)[C@H](CCN)NC2=O)cc1 [compound 27] (cyclo(LSY(Me)[Dab][Orn][dDab][Dab]W[Dab][Tle]AS[dP]P))	1
CC(C)NC(=O)NC[C@@H]1NC(=O)[C@H](Cc2c[nH]c3ccccc23)NC(=O)[C@@H]2CCCN2C(=O)[C@H]2CCCN2C(=O)[C@H](CO)NC(=O)[C@H](C)NC(=O)[C@H](C(C)(C)C)NC(=O)[C@H](CCN)NC(=O)[C@H](Cc2c[nH]c3ccccc23)NC(=O)[C@H](CCN)NC(=O)[C@@H](CCN)NC(=O)[C@H](CCCN)NC(=O)[C@H](CCN)NC(=O)[C@H](CC2CCCCC2)NC1=O [compound 17] (cyclo(W[Dap]([CO-NHiPr])[Cha][Dab][Orn][dDab][Dab]W[Dab][Tle]AS[dP]P))	6
C[C@@H]1NC(=O)[C@H](Cc2c[nH]c3ccccc23)NC(=O)[C@@H]2[C@@H](O)CCN2C(=O)[C@H]2CCCN2C(=O)[C@H](CO)NC(=O)[C@H](CO)NC(=O)[C@H](C(C)(C)C)NC(=O)[C@H](CCN)NC(=O)[C@H](Cc2c[nH]c3ccccc23)NC(=O)[C@H](CCN)NC(=O)[C@@H](CCN)NC(=O)[C@H](CCCN)NC(=O)[C@H](CCN)NC(=O)[C@H](C2CCCCC2)NC1=O [compound 65] (cyclo(WA[Chg][Dab][Orn][dDab][Dab]W[Dab][Tle]SS[dP][Pro(3S-OH)]))	3.5
CCC[C@@H]1NC(=O)[C@@H]2CCCN2C(=O)[C@H]2CCCN2C(=O)[C@H](CO)NC(=O)[C@H](C)NC(=O)[C@H](CC2CCCCC2)NC(=O)[C@H](CCN)NC(=O)[C@H](Cc2c[nH]c3ccccc23)NC(=O)[C@H](CCN)NC(=O)[C@@H](CCN)NC(=O)[C@H](CCCN)NC(=O)[C@H](CCN)NC(=O)[C@H](Cc2ccc(O)cc2)NC(=O)[C@H](CO)NC1=O [compound 93] (cyclo([Nva]SY[Dab][Orn][dDab][Dab]W[Dab][Cha]AS[dP]P))	5
C[C@@H]1NC(=O)[C@H](Cc2c[nH]c3ccccc23)NC(=O)[C@@H]2C[C@H](OCc3ccccc3)CN2C(=O)[C@H]2CCCN2C(=O)[C@H](CO)NC(=O)[C@H](C)NC(=O)[C@H](C(C)(C)C)NC(=O)[C@H](CCN)NC(=O)[C@H](Cc2c[nH]c3ccccc23)NC(=O)[C@H](CCN)NC(=O)[C@H](CCN)NC(=O)[C@H](CCCN)NC(=O)[C@H](CCN)NC(=O)[C@H](CC2CCCCC2)NC1=O [compound 64] (cyclo(WA[Cha][Dab][Orn][Dab][Dab]W[Dab][Tle]AS[dP][cisHyp](Bn)))	3
CC(C)C[C@@H]1NC(=O)[C@@H]2CCCN2C(=O)[C@H]2CCCN2C(=O)[C@H]([C@@H](C)O)NC(=O)[C@H](CO)NC(=O)[C@H](C(C)(C)C)NC(=O)[C@H](CCN)NC(=O)[C@H](Cc2c[nH]c3ccccc23)NC(=O)[C@H](CCN)NC(=O)[C@@H](CCN)NC(=O)[C@H](CCN)NC(=O)[C@H](CCN)NC(=O)[C@H](Cc2ccc(O)cc2)NC(=O)[C@H]([C@@H](C)O)NC1=O [compound 124] (cyclo(LTY[Dab][Dab][dDab][Dab]W[Dab][Tle]ST[dP]P))	0.5
C[C@@H]1NC(=O)[C@H](Cc2c[nH]c3ccccc23)NC(=O)[C@@H]2CCCN2C(=O)[C@H]2CCCN2C(=O)[C@H](CO)NC(=O)[C@H](C)NC(=O)[C@H](C2CCCCC2)NC(=O)[C@H](CCN)NC(=O)[C@H](Cc2c[nH]c3ccccc23)NC(=O)[C@H](CCN)NC(=O)[C@@H](CCN)NC(=O)[C@H](CCCN)NC(=O)[C@H](CCN)NC(=O)[C@H](Cc2ccc(O)cc2)NC1=O [compound 77] (cyclo(WAY[Dab][Orn][dDab][Dab]W[Dab][Chg]AS[dP]P))	1
CC(C)C[C@@H]1NC(=O)[C@@H]2CCCN2C(=O)[C@H]2CCCN2C(=O)[C@H]([C@@H](C)O)NC(=O)[C@H](CO)NC(=O)[C@H](C(C)(C)C)NC(=O)[C@H](CCN)NC(=O)[C@H](Cc2c[nH]c3ccccc23)NC(=O)[C@H](CCN)NC(=O)[C@@H](CCN)NC(=O)[C@H](CCCN)NC(=O)[C@H](CCN)NC(=O)[C@H](Cc2ccc(O)cc2)NC(=O)[C@H](C)NC1=O [compound 131] (cyclo(LAY[Dab][Orn][dDab][Dab]W[Dab][Tle]ST[dP]P))	0.1
